Among the data in patent US8580918B2, “Peptidic GLP-2 agonists” (Ferring B.V., priority 2009, dated 2013) are clearance values, retold here.

Where a SMILES comes first, the peptide text is derived from it. [ ]: non-standard residue; d: D form. dPhe(3-Cl) = N[C@H](Cc1cccc(Cl)c1)C(=O)O; d2Thi = N[C@H](Cc1cccs1)C(=O)O; Nle = CCCC[C@H](N)C(=O)O

A short description of one data set: Pharmacokinetics in rats after intravenous bolus injection (systemic clearance). The data set is classed as in vivo. Conditions: rat, plasma, 0.2 mg FB/kg, adult male Sprague-Dawley rats, i.v. bolus, dose 0.20 mg FB/kg, read-out: CL (ml/kg/min) Average. A digest of the protocol: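 Systemic clearance from noncompartmental analysis as dose per kg over trapezoidal AUC extrapolated to infinity, mean and SD across animals. Plasma (K2EDTA) levels by LC/MS/MS after single IV jugular-vein bolus, 0.1-1.0 mg/kg, in 3-4 cannulated male Sprague-Dawley rats.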
Turning to `CCCC[C@H](NC(=O)[C@H](CCC(=O)O)NC(=O)[C@H](CC(=O)O)NC(=O)[C@H](CO)NC(=O)[C@H](Cc1ccccc1)NC(=O)[C@H](CO)NC(=O)CNC(=O)[C@H](CC(=O)O)NC(=O)CNC(=O)[C@@H](N)Cc1c[nH]cn1)C(=O)N[C@H](Cc1ccccc1)C(=O)N[C@H](C(=O)N[C@H](C(=O)N[C@@H](CC(C)C)C(=O)N[C@@H](CC(=O)O)C(=O)N[C@@H](Cc1ccccc1)C(=O)N[C@@H](CC(C)C)C(=O)N[C@@H](C)C(=O)N[C@@H](C)C(=O)N[C@@H](CCCNC(=N)N)C(=O)N[C@@H](CC(=O)O)C(=O)N[C@@H](Cc1ccccc1)C(=O)N[C@H](C(=O)N[C@@H](CC(N)=O)C(=O)N[C@@H](Cc1c[nH]c2ccccc12)C(=O)N[C@@H](CC(C)C)C(=O)N[C@H](C(=O)N[C@@H](CCC(N)=O)C(=O)N[C@H](C(=O)N[C@@H](CCCCN)C(=O)N[C@H](C(=O)N[C@H](C(=O)N[C@@H](CC(=O)O)C(=O)O)[C@@H](C)O)[C@@H](C)CC)[C@@H](C)O)[C@@H](C)CC)[C@@H](C)CC)[C@@H](C)CC)[C@@H](C)O` [Compound 64, [Gly2,Nle10,D-Phe11,Phe16] hGLP-2(1-33)-OH] (H-HGDGSFSDE[Nle][dF]TILDFLAARDFINWLIQTKITD-OH), the clearance amounted to 0.15 mL/kg/min.
As to `CCCC[C@H](NC(=O)[C@H](CCC(=O)O)NC(=O)[C@H](CC(=O)O)NC(=O)[C@H](CO)NC(=O)[C@H](Cc1ccccc1)NC(=O)[C@H](CO)NC(=O)CNC(=O)[C@H](CC(=O)O)NC(=O)CNC(=O)[C@@H](N)Cc1c[nH]cn1)C(=O)N[C@H](Cc1cccc(Cl)c1)C(=O)N[C@H](C(=O)N[C@H](C(=O)N[C@@H](CC(C)C)C(=O)N[C@@H](CC(=O)O)C(=O)N[C@@H](Cc1ccccc1)C(=O)N[C@@H](CC(C)C)C(=O)N[C@@H](C)C(=O)N[C@@H](C)C(=O)N[C@@H](CCCNC(=N)N)C(=O)N[C@@H](CC(=O)O)C(=O)N[C@@H](Cc1ccccc1)C(=O)N[C@H](C(=O)N[C@@H](CC(N)=O)C(=O)N[C@@H](Cc1c[nH]c2ccccc12)C(=O)N[C@@H](CC(C)C)C(=O)N[C@H](C(=O)N[C@@H](CCC(N)=O)C(=O)N[C@H](C(=O)N[C@@H](CCCCN)C(=O)N[C@H](C(=O)N[C@H](C(=O)N[C@@H](CC(=O)O)C(N)=O)[C@@H](C)O)[C@@H](C)CC)[C@@H](C)O)[C@@H](C)CC)[C@@H](C)CC)[C@@H](C)CC)[C@@H](C)O` [Compound 66, [Gly2,Nle10,D-3-Cpa11,Phe16] hGLP-2(1-33)-NH2] (H-HGDGSFSDE[Nle][dPhe(3-Cl)]TILDFLAARDFINWLIQTKITD-NH2), the clearance was 0.12 mL/kg/min.
`CCCC[C@H](NC(=O)[C@H](CCC(=O)O)NC(=O)[C@H](CC(=O)O)NC(=O)[C@H](CO)NC(=O)[C@H](Cc1ccccc1)NC(=O)[C@H](CO)NC(=O)CNC(=O)[C@H](CC(=O)O)NC(=O)CNC(=O)[C@@H](N)Cc1c[nH]cn1)C(=O)N[C@H](Cc1cccs1)C(=O)N[C@H](C(=O)N[C@H](C(=O)N[C@@H](CC(C)C)C(=O)N[C@@H](CC(=O)O)C(=O)N[C@@H](Cc1ccccc1)C(=O)N[C@@H](CC(C)C)C(=O)N[C@@H](C)C(=O)N[C@@H](C)C(=O)N[C@@H](CCCNC(=N)N)C(=O)N[C@@H](CC(=O)O)C(=O)N[C@@H](Cc1ccccc1)C(=O)N[C@H](C(=O)N[C@@H](CC(N)=O)C(=O)N[C@@H](Cc1c[nH]c2ccccc12)C(=O)N[C@@H](CC(C)C)C(=O)N[C@H](C(=O)N[C@@H](CCC(N)=O)C(=O)N[C@H](C(=O)N[C@@H](CCCCN)C(=O)N[C@H](C(=O)N[C@H](C(=O)N[C@@H](CC(=O)O)C(N)=O)[C@@H](C)O)[C@@H](C)CC)[C@@H](C)O)[C@@H](C)CC)[C@@H](C)CC)[C@@H](C)CC)[C@@H](C)O` [Compound 68, [Gly2,Nle10,D-Thi11,Phe16] hGLP-2(1-33)-NH2] (H-HGDGSFSDE[Nle][d2Thi]TILDFLAARDFINWLIQTKITD-NH2): the clearance amounted to 0.15 mL/kg/min.
For the molecule `CC[C@H](C)[C@H](NC(=O)[C@H](Cc1ccccc1)NC(=O)[C@H](CC(=O)O)NC(=O)[C@H](CCCNC(=N)N)NC(=O)[C@H](C)NC(=O)[C@H](C)NC(=O)[C@H](CC(C)C)NC(=O)[C@H](CC(N)=O)NC(=O)[C@H](CC(=O)O)NC(=O)[C@H](CC(C)C)NC(=O)[C@@H](NC(=O)[C@@H](NC(=O)[C@H](CC(N)=O)NC(=O)[C@H](CCSC)NC(=O)[C@H](CCC(=O)O)NC(=O)[C@H](CC(=O)O)NC(=O)[C@H](CO)NC(=O)[C@H](Cc1ccccc1)NC(=O)[C@H](CO)NC(=O)CNC(=O)[C@H](CC(=O)O)NC(=O)CNC(=O)[C@@H](N)Cc1c[nH]cn1)[C@@H](C)O)[C@@H](C)CC)C(=O)N[C@@H](CC(N)=O)C(=O)N[C@@H](Cc1c[nH]c2ccccc12)C(=O)N[C@@H](CC(C)C)C(=O)N[C@H](C(=O)N[C@@H](CCC(N)=O)C(=O)N[C@H](C(=O)N[C@@H](CCCCN)C(=O)N[C@H](C(=O)N[C@H](C(=O)N[C@@H](CC(=O)O)C(=O)O)[C@@H](C)O)[C@@H](C)CC)[C@@H](C)O)[C@@H](C)CC` [teduglutide, [Gly2]hGLP 2, reference compound], the clearance is 9.9 mL/kg/min.

Staying with this data set, now noted: rat, plasma, adult male Sprague-Dawley rats, i.v. bolus, dose 1.0 mg FB/kg, read-out: CL (ml/kg/min) Average.
Consider `CC[C@H](C)[C@H](NC(=O)[C@H](Cc1ccccc1)NC(=O)[C@H](CC(=O)O)NC(=O)[C@H](CCCNC(=N)N)NC(=O)[C@H](C)NC(=O)[C@H](C)NC(=O)[C@H](CC(C)C)NC(=O)[C@H](CC(N)=O)NC(=O)[C@H](CC(=O)O)NC(=O)[C@H](CC(C)C)NC(=O)[C@@H](NC(=O)[C@@H](NC(=O)[C@H](CC(N)=O)NC(=O)[C@H](CCSC)NC(=O)[C@H](CCC(=O)O)NC(=O)[C@H](CC(=O)O)NC(=O)[C@H](CO)NC(=O)[C@H](Cc1ccccc1)NC(=O)[C@H](CO)NC(=O)CNC(=O)[C@H](CC(=O)O)NC(=O)CNC(=O)[C@@H](N)Cc1c[nH]cn1)[C@@H](C)O)[C@@H](C)CC)C(=O)N[C@@H](CC(N)=O)C(=O)N[C@@H](Cc1c[nH]c2ccccc12)C(=O)N[C@@H](CC(C)C)C(=O)N[C@H](C(=O)N[C@@H](CCC(N)=O)C(=O)N[C@H](C(=O)N[C@@H](CCCCN)C(=O)N[C@H](C(=O)N[C@H](C(=O)N[C@@H](CC(=O)O)C(=O)O)[C@@H](C)O)[C@@H](C)CC)[C@@H](C)O)[C@@H](C)CC` [teduglutide, [Gly2]hGLP 2, reference compound], for which the clearance was found to be 8 mL/kg/min.
